Results from US20230365546A1, “5-SUBSTITUTED INDOLE 3-AMIDE DERIVATIVES, PREPARATION METHOD AND USE THEREOF” (ORIGIANT PHARMACEUTICAL CO., LTD, priority 2020, published 2023).

Legend:
Assay in all cases: Kinase Profiler 10 μM panel
MSSK1(h) = MSSK1(h) (Homo sapiens (Human), UniProt Q9UPE1)
Procedure: (§1) In vitro kinase assays were conducted using Kinase Profiler services provided by Eurofins. The experimental method was as follows: the small molecule compound to be tested (0.001-10 μM), the protein kinase to be tested were incubated with a buffer containing substrate, 10 mM magnesium acetate, and [γ-^33P-ATP], the reaction was started by adding Mg\TPmix, after incubation for a period of time at room temperature, a 3% phosphate solution was added to the buffer to stop the reaction. Subsequently, 10 μL of the reaction mixture was quantitatively pipetted onto P30 filter paper, which was washed three times with 75 mM phosphate solution and then once with methanol. The P30 filter paper was air-dried and scintillation fluid was added for scintillation counting.

HPK1(h) = HPK1(h) (Homo sapiens (Human), UniProt Q92918)
Procedure: as §1

CDK9/cyclin T1(h) = CDK9/cyclin T1(h) (Homo sapiens (Human), UniProt P50750)
Procedure: as §1

MRCKα(h) = MRCKα(h) (Homo sapiens (Human), UniProt Q5VT25)
Procedure: as §1

PRAK(h) = PRAK(h) (Homo sapiens (Human), UniProt Q8IW41)
Procedure: as §1

DAPK1(h) = DAPK1(h) (Homo sapiens (Human), UniProt P53355)
Procedure: as §1

IRAK1(h) = IRAK1(h) (Homo sapiens (Human), UniProt P51617)
Procedure: as §1

CK1γ1(h) = CK1γ1(h) (Homo sapiens (Human), UniProt Q9HCP0)
Procedure: as §1

Mer(h) = Mer(h) (Homo sapiens (Human), UniProt Q12866)
Procedure: as §1

GRK2(h) = GRK2(h) (Homo sapiens (Human), UniProt P25098)
Procedure: as §1

EphA4(h) = EphA4(h) (Homo sapiens (Human), UniProt P54764)
Procedure: as §1

Yes(h) = Yes(h) (Homo sapiens (Human), UniProt P07947)
Procedure: as §1

AMPKα2(h) = AMPKα2(h) (Homo sapiens (Human), UniProt P54646)
Procedure: as §1

Rsk2(h) = Rsk2(h) (Homo sapiens (Human), UniProt P51812)
Procedure: as §1

SBK1(h) = SBK1(h) (Homo sapiens (Human), UniProt Q52WX2)
Procedure: as §1

MSK1(h) = MSK1(h) (Homo sapiens (Human), UniProt O75582)
Procedure: as §1

BMPR2(h) = BMPR2(h) (Homo sapiens (Human), UniProt Q13873)
Procedure: as §1

PDK1(h) = PDK1(h) (Homo sapiens (Human), UniProt O15530)
Procedure: as §1

DCAMKL3(h) = DCAMKL3(h) (Homo sapiens (Human), UniProt Q9C098)
DNA-PK(h) = DNA-PK(h) (Homo sapiens (Human), UniProt P78527)
Procedure: as §1

Rsk4(h) = Rsk4(h) (Homo sapiens (Human), UniProt Q9UK32)
Procedure: as §1

IGF-1R(h), activated = IGF-1R(h), activated (Homo sapiens (Human), UniProt P08069)
Procedure: as §1

Met(Y1248H)(h) = Met(Y1248H)(h) (Homo sapiens (Human), UniProt P08581, Y1230H)
Procedure: as §1

[1] = biological target: PI3 Kinase (p110a/p85a)(m) (Mus musculus (Mouse), UniProt P42337)
Procedure: as §1

[2] = biological target: PI3 Kinase (p110a(E542K)/p85a)(h) (Homo sapiens (Human), UniProt P42336, E542K)
Procedure: as §1

PIP4K2a(h) = PIP4K2a(h) (Homo sapiens (Human), UniProt P48426)
Procedure: as §1

NUAK2(h) = NUAK2(h) (Homo sapiens (Human), UniProt Q9H093)
Procedure: as §1

Met(h) = Met(h) (Homo sapiens (Human), UniProt P08581)
Procedure: as §1

TAK1(h) = TAK1(h) (Homo sapiens (Human), UniProt O43318)
Procedure: as §1

NDR2(h) = NDR2(h) (Homo sapiens (Human), UniProt Q9Y2H1)
Procedure: as §1

JNK1α1(h) = JNK1α1(h) (Homo sapiens (Human), UniProt P45983)
Procedure: as §1

NIM1(h) = NIM1(h) (Homo sapiens (Human), UniProt Q8IY84)
Procedure: as §1

PAR-1Bα(h) = PAR-1Bα(h) (Homo sapiens (Human), UniProt Q7KZI7)
Procedure: as §1

DYRK1A(h) = DYRK1A(h) (Homo sapiens (Human), UniProt Q13627)
Procedure: as §1

Sequence of EphA4(h) (P54764 20-986): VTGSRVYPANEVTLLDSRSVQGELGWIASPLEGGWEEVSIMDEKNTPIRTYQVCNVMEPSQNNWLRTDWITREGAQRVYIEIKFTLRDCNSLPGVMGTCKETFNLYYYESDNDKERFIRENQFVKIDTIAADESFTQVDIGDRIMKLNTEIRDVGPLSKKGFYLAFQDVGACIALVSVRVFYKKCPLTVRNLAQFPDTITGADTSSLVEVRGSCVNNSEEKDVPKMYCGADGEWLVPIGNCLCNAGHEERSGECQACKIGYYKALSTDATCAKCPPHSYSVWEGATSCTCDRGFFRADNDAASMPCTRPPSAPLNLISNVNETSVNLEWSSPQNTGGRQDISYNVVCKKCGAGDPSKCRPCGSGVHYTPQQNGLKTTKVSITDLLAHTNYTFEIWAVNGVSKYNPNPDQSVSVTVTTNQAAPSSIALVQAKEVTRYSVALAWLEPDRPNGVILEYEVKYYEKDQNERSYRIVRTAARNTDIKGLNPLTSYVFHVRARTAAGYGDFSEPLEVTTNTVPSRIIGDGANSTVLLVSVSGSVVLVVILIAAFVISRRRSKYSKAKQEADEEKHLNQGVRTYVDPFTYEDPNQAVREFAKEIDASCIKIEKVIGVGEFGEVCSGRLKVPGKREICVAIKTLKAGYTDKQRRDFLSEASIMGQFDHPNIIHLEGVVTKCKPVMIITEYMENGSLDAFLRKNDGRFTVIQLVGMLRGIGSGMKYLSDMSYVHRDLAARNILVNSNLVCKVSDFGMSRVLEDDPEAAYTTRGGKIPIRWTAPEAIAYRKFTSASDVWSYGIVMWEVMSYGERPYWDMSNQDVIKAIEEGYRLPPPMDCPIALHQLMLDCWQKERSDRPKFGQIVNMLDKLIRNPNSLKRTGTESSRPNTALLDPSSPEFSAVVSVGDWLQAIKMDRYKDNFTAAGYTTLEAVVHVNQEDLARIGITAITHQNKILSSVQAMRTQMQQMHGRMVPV
Sequence of CK1γ1(h) (Q9HCP0 whole entry): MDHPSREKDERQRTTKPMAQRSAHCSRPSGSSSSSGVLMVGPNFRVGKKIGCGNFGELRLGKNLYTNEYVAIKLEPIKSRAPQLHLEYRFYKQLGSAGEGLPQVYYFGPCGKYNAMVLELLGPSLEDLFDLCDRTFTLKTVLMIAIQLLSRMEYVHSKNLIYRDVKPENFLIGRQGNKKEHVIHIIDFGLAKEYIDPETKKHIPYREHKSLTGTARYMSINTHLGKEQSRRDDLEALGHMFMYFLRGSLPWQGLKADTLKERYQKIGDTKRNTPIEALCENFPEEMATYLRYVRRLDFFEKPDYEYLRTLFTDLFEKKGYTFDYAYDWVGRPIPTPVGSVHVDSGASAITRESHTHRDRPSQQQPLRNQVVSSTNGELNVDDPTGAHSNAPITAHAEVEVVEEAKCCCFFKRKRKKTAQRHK
Sequence of DAPK1(h) (P53355 whole entry): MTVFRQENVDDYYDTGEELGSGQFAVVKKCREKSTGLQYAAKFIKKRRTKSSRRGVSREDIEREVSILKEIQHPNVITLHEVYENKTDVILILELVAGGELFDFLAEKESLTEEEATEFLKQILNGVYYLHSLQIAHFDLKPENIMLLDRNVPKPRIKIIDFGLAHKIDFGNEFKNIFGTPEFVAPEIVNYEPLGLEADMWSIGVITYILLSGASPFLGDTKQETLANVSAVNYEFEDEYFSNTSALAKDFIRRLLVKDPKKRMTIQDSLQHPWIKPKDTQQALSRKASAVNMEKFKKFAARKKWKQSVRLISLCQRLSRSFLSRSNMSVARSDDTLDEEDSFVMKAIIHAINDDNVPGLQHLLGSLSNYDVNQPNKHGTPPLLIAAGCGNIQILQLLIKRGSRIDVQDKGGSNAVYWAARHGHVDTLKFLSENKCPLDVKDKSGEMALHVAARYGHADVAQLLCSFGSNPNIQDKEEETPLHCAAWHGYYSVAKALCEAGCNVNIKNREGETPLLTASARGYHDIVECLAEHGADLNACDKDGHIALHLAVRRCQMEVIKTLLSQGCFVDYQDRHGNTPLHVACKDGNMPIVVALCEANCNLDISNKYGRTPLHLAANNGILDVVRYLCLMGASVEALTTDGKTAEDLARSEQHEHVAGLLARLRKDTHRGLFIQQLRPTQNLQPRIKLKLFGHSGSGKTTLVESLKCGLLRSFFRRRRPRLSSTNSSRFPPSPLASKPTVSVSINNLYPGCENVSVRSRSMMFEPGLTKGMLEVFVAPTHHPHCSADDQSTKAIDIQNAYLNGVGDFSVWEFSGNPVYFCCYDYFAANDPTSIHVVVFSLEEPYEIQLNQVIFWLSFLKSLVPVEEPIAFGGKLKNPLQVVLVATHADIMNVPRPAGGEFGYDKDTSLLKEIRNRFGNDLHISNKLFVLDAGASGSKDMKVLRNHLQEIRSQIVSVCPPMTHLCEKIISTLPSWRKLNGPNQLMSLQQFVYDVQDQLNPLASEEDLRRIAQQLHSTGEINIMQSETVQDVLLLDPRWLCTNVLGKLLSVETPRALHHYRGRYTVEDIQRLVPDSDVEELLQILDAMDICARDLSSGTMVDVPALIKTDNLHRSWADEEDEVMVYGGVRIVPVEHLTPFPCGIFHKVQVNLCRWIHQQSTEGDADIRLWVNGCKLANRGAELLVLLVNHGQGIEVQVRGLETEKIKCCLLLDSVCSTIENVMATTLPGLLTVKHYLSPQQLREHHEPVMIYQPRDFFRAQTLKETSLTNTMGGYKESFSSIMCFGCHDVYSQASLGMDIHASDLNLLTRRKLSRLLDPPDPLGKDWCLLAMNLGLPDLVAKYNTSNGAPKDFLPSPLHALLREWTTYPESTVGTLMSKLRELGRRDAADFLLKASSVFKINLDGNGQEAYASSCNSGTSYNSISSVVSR
Sequence of PDK1(h) (O15530 whole entry): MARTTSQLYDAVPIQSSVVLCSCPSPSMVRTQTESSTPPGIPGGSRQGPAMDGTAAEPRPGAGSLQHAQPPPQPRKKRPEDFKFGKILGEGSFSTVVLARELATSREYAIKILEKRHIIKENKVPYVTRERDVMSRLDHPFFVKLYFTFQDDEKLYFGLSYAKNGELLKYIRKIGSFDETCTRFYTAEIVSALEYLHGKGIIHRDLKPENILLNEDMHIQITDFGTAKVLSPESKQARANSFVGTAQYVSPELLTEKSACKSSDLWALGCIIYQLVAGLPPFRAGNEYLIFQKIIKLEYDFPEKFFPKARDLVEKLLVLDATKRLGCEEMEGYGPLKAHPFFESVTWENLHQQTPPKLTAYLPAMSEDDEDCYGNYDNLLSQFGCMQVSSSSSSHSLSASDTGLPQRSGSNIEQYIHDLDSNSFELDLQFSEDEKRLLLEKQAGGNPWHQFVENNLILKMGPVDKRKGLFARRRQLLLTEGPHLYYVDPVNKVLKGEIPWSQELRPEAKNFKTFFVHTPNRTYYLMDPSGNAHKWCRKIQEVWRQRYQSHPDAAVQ
Sequence of MSK1(h) (O75582 whole entry): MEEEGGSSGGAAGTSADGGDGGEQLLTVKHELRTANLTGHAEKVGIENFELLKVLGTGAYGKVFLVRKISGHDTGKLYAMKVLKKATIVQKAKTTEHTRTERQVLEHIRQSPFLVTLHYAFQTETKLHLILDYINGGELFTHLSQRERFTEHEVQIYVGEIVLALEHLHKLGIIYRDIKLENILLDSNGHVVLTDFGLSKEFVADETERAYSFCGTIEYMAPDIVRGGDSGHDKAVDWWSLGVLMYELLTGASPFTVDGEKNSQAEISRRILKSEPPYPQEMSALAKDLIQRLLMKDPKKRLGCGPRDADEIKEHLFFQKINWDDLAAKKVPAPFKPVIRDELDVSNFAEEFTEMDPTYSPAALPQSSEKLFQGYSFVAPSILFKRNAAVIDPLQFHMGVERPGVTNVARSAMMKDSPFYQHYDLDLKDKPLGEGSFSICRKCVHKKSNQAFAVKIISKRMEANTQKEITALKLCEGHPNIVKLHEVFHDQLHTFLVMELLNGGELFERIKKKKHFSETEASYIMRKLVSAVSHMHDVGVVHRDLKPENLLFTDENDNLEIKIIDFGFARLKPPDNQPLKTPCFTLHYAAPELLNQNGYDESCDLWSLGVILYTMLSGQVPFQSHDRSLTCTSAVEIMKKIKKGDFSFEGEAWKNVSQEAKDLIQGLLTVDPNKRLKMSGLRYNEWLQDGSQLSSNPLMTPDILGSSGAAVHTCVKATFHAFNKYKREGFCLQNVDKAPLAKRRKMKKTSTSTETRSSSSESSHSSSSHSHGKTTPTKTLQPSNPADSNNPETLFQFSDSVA
Sequence of GRK2(h) (P25098 whole entry): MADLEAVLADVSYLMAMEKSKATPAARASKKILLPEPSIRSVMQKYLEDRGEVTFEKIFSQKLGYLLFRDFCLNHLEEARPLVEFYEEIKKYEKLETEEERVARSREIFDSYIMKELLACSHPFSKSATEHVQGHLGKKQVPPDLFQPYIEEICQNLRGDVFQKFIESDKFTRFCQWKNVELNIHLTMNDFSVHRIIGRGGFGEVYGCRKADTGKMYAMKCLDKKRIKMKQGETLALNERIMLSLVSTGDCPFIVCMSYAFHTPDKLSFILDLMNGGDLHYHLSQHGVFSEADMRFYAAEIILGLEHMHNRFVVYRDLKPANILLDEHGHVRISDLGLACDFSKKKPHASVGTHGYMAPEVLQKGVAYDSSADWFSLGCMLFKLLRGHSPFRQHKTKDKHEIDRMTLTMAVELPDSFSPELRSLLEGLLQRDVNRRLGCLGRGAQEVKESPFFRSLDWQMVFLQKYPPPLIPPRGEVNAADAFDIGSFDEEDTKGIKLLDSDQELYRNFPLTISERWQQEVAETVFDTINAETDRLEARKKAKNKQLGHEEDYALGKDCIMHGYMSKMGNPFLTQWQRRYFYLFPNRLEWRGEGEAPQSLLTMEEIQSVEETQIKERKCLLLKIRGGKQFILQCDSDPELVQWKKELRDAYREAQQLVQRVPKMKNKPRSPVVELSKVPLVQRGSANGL

C[C@H](NC(=O)c1c[nH]c2ccc(-c3ccc4nc(NC(=O)C5CC5)sc4c3)cc12)c1cccc(F)c1 [Compound 34, (S)-5-(2-(cyclopropanecarboxamido)benzo[d]thiazol-6-yl)-N-(1-(3-fluorophenyl)ethyl)-1H-indole-3-carboxamide]
Inhibition ratio (MSSK1(h)): 24% | Inhibition ratio (HPK1(h)): 75% | Inhibition ratio (CDK9/cyclin T1(h)): 41% | Inhibition ratio (MRCKα(h)): 12% | Inhibition ratio (PRAK(h)): 27% | Inhibition ratio (DAPK1(h)): 12% | Inhibition ratio (IRAK1(h)): 32% | Inhibition ratio (CK1γ1(h)): 5% | Inhibition ratio (Mer(h)): 97% | Inhibition ratio (GRK2(h)): −1% | Inhibition ratio (EphA4(h)): 14% | Inhibition ratio (Yes(h)): 85% | Inhibition ratio (AMPKα2(h)): 13% | Inhibition ratio (Rsk2(h)): 1% | Inhibition ratio (SBK1(h)): −12% | Inhibition ratio (MSK1(h)): 53% | Inhibition ratio (BMPR2(h)): 30% | Inhibition ratio (PDK1(h)): 19% | Inhibition ratio (DCAMKL3(h)): 8% | Inhibition ratio (DNA-PK(h)): 24% | Inhibition ratio (Rsk4(h)): −15% | Inhibition ratio (IGF-1R(h), activated): 21% | Inhibition ratio (Met(Y1248H)(h)): 107% | Inhibition ratio [1]: 43% | Inhibition ratio [2]: 38% | Inhibition ratio (PIP4K2a(h)): 17% | Inhibition ratio (NUAK2(h)): 9% | Inhibition ratio (Met(h)): 95% | Inhibition ratio (TAK1(h)): 45% | Inhibition ratio (NDR2(h)): 23% | Inhibition ratio (JNK1α1(h)): 15% | Inhibition ratio (NIM1(h)): −19% | Inhibition ratio (PAR-1Bα(h)): 2% | Inhibition ratio (DYRK1A(h)): 47%

C[C@H](NC(=O)c1cn(C)c2ccc(-c3ccn4nc(NC(=O)C5CC5)nc4c3)cc12)c1cccc(F)c1 [Compound 94, (S)-5-(2-(cyclopropanecarboxamido)-[1,2,4]triazolo[1,5-a]pyridin-7-yl)-N-(1-(3-fluorophenyl)ethyl)-1-methyl-1H-indole-3-carboxamide]
Inhibition ratio/% (MSSK1(h)): −12% | Inhibition ratio/% (HPK1(h)): −3% | Inhibition ratio/% (CDK9/cyclin T1(h)): 61% | Inhibition ratio/% (MRCKα(h)): −19% | Inhibition ratio/% (PRAK(h)): 30% | Inhibition ratio/% (DAPK1(h)): 40% | Inhibition ratio/% (IRAK1(h)): 23% | Inhibition ratio/% (CK1γ1(h)): 19% | Inhibition ratio/% (Mer(h)): −6% | Inhibition ratio/% (GRK2(h)): 53% | Inhibition ratio/% (EphA4(h)): 11% | Inhibition ratio/% (Yes(h)): 29% | Inhibition ratio/% (AMPKα2(h)): 16% | Inhibition ratio/% (Rsk2(h)): 4% | Inhibition ratio/% (SBK1(h)): −19% | Inhibition ratio/% (MSK1(h)): −20% | Inhibition ratio/% (BMPR2(h)): −6% | Inhibition ratio/% (PDK1(h)): 18% | Inhibition ratio/% (DCAMKL3(h)): 33% | Inhibition ratio/% (DNA-PK(h)): 47% | Inhibition ratio/% (Rsk4(h)): 3% | Inhibition ratio/% (IGF-1R(h), activated): −17% | Inhibition ratio/% (Met(Y1248H)(h)): −11% | Inhibition ratio/% [1]: −16% | Inhibition ratio/% [2]: −4% | Inhibition ratio/% (PIP4K2a(h)): 7% | Inhibition ratio/% (NUAK2(h)): 30% | Inhibition ratio/% (Met(h)): −29% | Inhibition ratio/% (TAK1(h)): 9% | Inhibition ratio/% (NDR2(h)): 46% | Inhibition ratio/% (JNK1α1(h)): 53% | Inhibition ratio/% (NIM1(h)): 10% | Inhibition ratio/% (PAR-1Bα(h)): 33% | Inhibition ratio/% (DYRK1A(h)): 2%
